Assay results: patent publication US8242152B2, “Use of 4-[(4-thiazolyl)phenoxy]alkoxy-benzamidine derivatives for the prophylaxis and treatment of osteoporosis” (Dong Wha Pharmaceutical Co., Ltd., priority 2001, dated 2012)
“And” between values parts separate entries of the source, which are not always exact repeats. Identical values can stand only once.

Assays:
[1] = tested on: sciatic nerve neurectomized ddY mice; experiment: Prophylactic effects in neurectomized ddY mouse model (immobilization osteoporosis); assay type: in vivo; conditions: for TBV (%): epiphyseal regions of right tibia; for Cbt (um): mid-shaft regions of right tibia; for histological profiles of epiphyseal regions: FIG. 10, Hematoxylin-Eosin; for TBV % compared to control group (in words) / cortical bone thickness compared to control group (in words): right tibia, Fosamax 1 mg/kg, DW1350MSA 10 and 50 mg/kg
Excerpt: The effects of a drug would be based on histomorphometric changes of trabecular bone and thickness of cortical bone in this model.
The objective of the present study is to observe the anti-osteoporotic potential of DW1350MSA, and administration of the drug was initiated 2 days after neurectomy for prophylaxis study.
(§1) Twenty-five female ddY mice (6-wk old upon receipt, SLC, Japan) were used after acclimatization for 7 days. Animals were allocated to 5 per polycarbonate cage in a temperature (20-25° C.) and humidity (30-35%) controlled room. Light:dark cycle was 12 hr:12 hr and feed (Samyang, Korea) and water were supplied free to access. 20 mice were neurectomized and 5 mice were sham operated. For the prophylaxis study, treatment was initiated 2 days after neurectomy and then each sample was administrated for 4 weeks.
DW1350MSA was dissolved in injectable distilled water and administered at a dosage volume of 10 ml/kg by oral gavage. The administered dose and schedule of these drugs are shown as Table 12.
3) Operation • A. Sham operation: The right side of the sciatic nerve was exposed by incision of skin and hip muscles, (about 1 cm) after that closed by skin suture. • B. neurectomy: After exposure of the right side of the sciatic nerve, about 1 mm of sciatic nerve was removed. After that closed by routine methods. • C. Operation was conducted under Ketamine hydrochloride (M.W.=256.8; 23076-35-9, ICN Biochemicals Inc., USA) and Xylazine hydrochloride (M.W.=274.19; 116-00512, Wako Pure Chemical Industries Ltd., Japan) anesthesia.
After that, embedded in paraffin, sectioned (3˜4 um) and stained with hematoxylin-eosin strain.
Mid-shaft cortical bone of tibia, and trabecular bone volume % of tibia were evaluated. In addition, histological profiles of epiphyseal regions of right tibia and femur were also observed. • A. Measurement of trabecular bone volume (TBV) Trabecular bone volume was calculated using automated image analysis (analySIS Image Processing; SIS, Germany) under magnification […] (×200) of microscopy (Zeiss, Germany) in the uniform area of epiphyseal regions of the right tibia and/or femur (growth plate regions were excluded). Trabecular bone volume was calculated as percentage levels. • B. Thickness of cortical bone (Cbt): Cortical bone thickness was detected in mid-shaft regions of right tibia and/or femur, and they were calculated using an automated image analyzer (analysis Image Processing; SIS, Germany) under magnification 200 (×200) of microscopy (Zeiss, Germany) at prepared histological samples. The thickness was detected as um levels. • C.
(§2) All data was calculated as mean±S.D. Statistical analyses was conducted using Mann-Whitney U-Wilcoxon Rank Sum W test (M-W test) with SPSS for Windows (Release 6.1.3., SPSS Inc., USA).

ovariectomized ddY mice = experiment: Prophylactic effects in ovariectomized ddY mouse model (estrogen-deficient osteoporosis); assay type: in vivo; conditions: for histological profiles of epiphyseal regions of right tibia and femur: FIG. 11
Experimental: The effects of a drug would be based on histomorphometric changes of trabecular bone and thickness cortical bone in this model.
The objective of present study is to observe the prophylactic effect of DW1350MSA, and administration of drug was initiated 3 days after ovariectomy for prophylaxis study.
as §1, with “allocated” for “allocated to”, “were ovariectomized” for “were neurectomized”, “For” for “For the”, “initiated 3” for “initiated 2”, “after ovariectomy” for “after neurectomy”, “for 6” for “for 4”
DW1350MSA was dissolved in injectable distilled water and administered at a dosage volume of 10 ml/kg by oral gavage.
3) Operation • A. Sham operation: Bilateral ovaries were exposed by incision of skin and abdominal muscles, (about 3 cm) after that closed by skin suture. • B. Ovariectomy: After exposure of bilateral ovaries, they were removed. After that closed by routine methods. • C. Operation was conduct under Ketamine hydrochloride (M.W.=256.8; 23076-35-9, ICN Biochemicals Inc., USA) and Xylazine hydrochloride (M.W.=274.19; 116-00512, Wako Pure Chemical Industries Ltd., Japan) anesthesia.
After that, embedded in paraffin, sectioned (3˜4 um) and stained with hematoxylin-eosin stain.
Histomorphometric changes of tibia and femur were evaluated. All histomorphometric indices including trabecular bone volume (TBV, %), thickness of trabecular bone (Tbt), trabecular bone number (Tbn), and length of trabeculer bone (Tbl) were calculated using automated image analysis (analysis Image Processing; SIS, Germany) under magnification 200 (×200) of microscopy (Zeiss, Germany) in the epiphyseal regions of right tibia and/or femur. In addition, cortical bone thickness (Cbt) was measured in mid-shaft region of right tibia and femur. […] Trabecular bone volume was calculated as percentage levels. • B. Measurement of histomorphometric index of trabecular bone: Thickness of trabecular bone (Tbt), trabecular bone number (Tbn), and length of trabecular bone (Tbl) were calculated using automated image analysis in the epiphyseal regions of right tibia and/or femur. Tbt and Tbl were calculated as um levels, and Tbn were calculated as number/whole sectional part of epiphyseal regions levels. • C. Thickness of cortical bone (Cbt): Cortical bone thickness was detected in mid-shaft regions of right tibia and/or femur, and they were calculated using automated image analyzer at prepared histological samples.
as §2

rabbit osteoclasts = experiment: TRAP(+) MNC formation in isolated rabbit osteoclast cultures, single treatment without LTB4 (Example 6); assay type: cell-based; conditions: 100 nM LTB4, 48 hours, dentin slices
Experimental: Rabbit osteoclasts were isolated as described by Victoria Tai's report (Doctoral Dissertation, 1997, Graduate Department of Pharmacology, University of Toronto) and Rraser P. Coxon et al. (Methods in Molecular Medicine, vol 80). Neonatal rabbits (New Zealand White) were sacrificed by ether-inhaling method under a hood. The removed long bones were dissected free of attached soft tissues and placed into ice-cold PBS. The long bones were cut longitudinally and mechanically curetted in 10 ml medium 199 with antibiotics (10 ug/ml penicillin G and 50 ug/ml gentamycin) in a glass Petri dish. Each bone was curetted with a scalpel blade and was finely minced. The fragments were then vigorously agitated by pipetting up and down using a pasteur pipette and vortex-mixed for 30 seconds. The fragments were allowed to settle and the cell suspension was then transferred to a 50 ml tube and the previous step repeated three times to a total volume of 40 ml. The bone fragments were allowed to settle (>1 min). The cell suspension was then transferred to a new 50 ml tube, passed through a 40 um cell strainer and centrifuged at 200 g for 8 minutes. The supernatant was removed and the pellet was immediately resuspended in α-MEM with 2% FBS (bicarbonate buffered medium).
40 uL droplets of osteoclast-containing suspensions were plated onto 60 mm tissue culture plastic dishes or on dentine slices in 96-well microtiter plates in 2% medium. The cells were allowed ninety minutes for attachment before the addition of 2 mL α-MEM with 2% FBS. After 24 hr culture, cells were washed to remove non-adherent cells and replaced with fresh medium as describes below.
After 24 hr in culture, the medium was replaced with fresh medium containing control, LTB4 receptor antagonists (1000 nM), DW1350 (10, 100 and 1000 nM) or LTB4 (100 nM) and the cultures were continued for an additional 48 hrs.
All cells were cultured at 37° C. in a humidified atmosphere of 95% air and 5% CO2 in bicarbonate buffered medium at pH 7.4.
Differentiated osteoclasts are multinucleated cells and have specific enzyme activity, such as ‘tartrate-resistant acid phosphatase (TRAP)’. Therefore, Osteoclast formation was determined by counting the number of TRAP-positive multinucleated cells (TRAP(+) MNCs).
After culture, the cells were fixed with 10% neutral buffered formalin for 30 min at 4° C., washed twice in distilled water and stained for TRAP activity by incubating with substrate. The number of TRAP(+)MNC with more than 2 nuclei was counted under photomicroscope.
Results were expressed as mean number of TRAP(+)MNC±SD of All experiments were done at least twice. Statistical analysis was performed for each experiment by student t-test.

[2] = 1 mg/kg oral once a day for 4 weeks
[3] = right femur, 10 mg/kg oral once a day for 6 weeks (F10, D10)
[4] = right tibia, 10 mg/kg oral once a day for 6 weeks (F10, D10)
[5] = tibia and femur, DW1350MSA 10 and 50 mg/kg, Fosamax 10 mg/kg
[6] = 10 mg/kg oral once a day for 4 weeks
[7] = 50 mg/kg oral once a day for 4 weeks
[8] = right femur, 50 mg/kg oral once a day for 6 weeks (D50)
[9] = right tibia, 50 mg/kg oral once a day for 6 weeks (D50)

NCCCC(O)(P(=O)(O)O)P(=O)(O)O [Fosamax, Alendronate]
TBV (%) [1, 2]: 21.81 ± 4.35 # %
Cbt (um) [1, 2]: 125.75 ± 36.01 um
histological profiles of epiphyseal regions [1]: more numerous extended trabecular bones were demonstrated compared to that of Control group
TBV % compared to control group (in words) [1]: significantly (p<0.01) increased compared to that of the control group
cortical bone thickness compared to control group (in words) [1]: significantly increased compared to that of the control group but significances were not demonstrated
histological profiles of epiphyseal regions of right tibia and femur (ovariectomized ddY mice): more numerous extended trabecular bones were demonstrated compared to that of Control
Cbt, cortical bone thickness (ovariectomized ddY mice; [3]): 53.00 ± 23.82 um
TBV, trabecular bone volume (ovariectomized ddY mice; [3]): 58.26 ± 5.77 %
Tbl, trabecular bone length (ovariectomized ddY mice; [3]): 460.80 ± 260.64 ## um
Tbn, trabecular bone number (ovariectomized ddY mice; [3]): 23.60 ± 2.97 # number/epiphyseal
Tbt, trabecular bone thickness (ovariectomized ddY mice; [3]): 33.00 ± 12.45 um
Cbt, cortical bone thickness (ovariectomized ddY mice; [4]): 59.80 ± 15.55 um
TBV, trabecular bone volume (ovariectomized ddY mice; [4]): 47.56 ± 7.23 # %
Tbl, trabecular bone length (ovariectomized ddY mice; [4]): 550.00 ± 74.98 ## um
Tbn, trabecular bone number (ovariectomized ddY mice; [4]): 12.60 ± 4.98 number/epiphyseal
Tbt, trabecular bone thickness (ovariectomized ddY mice; [4]): 83.20 ± 39.86 # um
effect on decrease of Cbt induced by ovariectomy (summary in words) (ovariectomized ddY mice; [5]): no favorable effect to changes of Cbt
effect on increase of Ocn induced by ovariectomy (summary in words) (ovariectomized ddY mice; [5]): no favorable effect to changes of Ocn

CS(=O)(=O)O.Cc1nc(-c2ccc(OCCCCCOc3ccc(C(N)=NO)cc3)cc2)c(C(C)C)s1 [DW1350MSA]
TBV (%) [1, 6]: 25.75 ± 2.87 # %
Cbt (um) [1, 6]: 171.36 ± 18.60 # um
TBV (%) [1, 7]: 33.29 ± 4.96 %
Cbt (um) [1, 7]: 193.87 ± 12.50 um
histological profiles of epiphyseal regions [1]: relatively well developed, especially in width and number, trabecular bone was detected
TBV % compared to control group (in words) [1]: significant dose-dependent (p<0.01) increase of trabecular bone volume %
cortical bone thickness compared to control group (in words) [1]: significant dose-dependent (p<0.01) increase of cortical bone thickness
histological profiles of epiphyseal regions of right tibia and femur (ovariectomized ddY mice): relatively well developed, especially in width and length, trabecular bone was detected
Cbt, cortical bone thickness (ovariectomized ddY mice; [3]): 118.00 ± 16.79 um
Ocn, osteoclast cell number (ovariectomized ddY mice; [3]): 5.00 ± 1.58 number
TBV, trabecular bone volume (ovariectomized ddY mice; [3]): 36.97 ± 9.59 # %
Tbl, trabecular bone length (ovariectomized ddY mice; [3]): 635.60 ± 190.76 um
Tbn, trabecular bone number (ovariectomized ddY mice; [3]): 19.00 ± 1.58 number/epiphyseal
Tbt, trabecular bone thickness (ovariectomized ddY mice; [3]): 48.60 ± 10.50 ## um
Cbt, cortical bone thickness (ovariectomized ddY mice; [8]): 140.26 ± 33.16 um
Ocn, osteoclast cell number (ovariectomized ddY mice; [8]): 4.40 ± 1.34 number
TBV, trabecular bone volume (ovariectomized ddY mice; [8]): 41.91 ± 6.04 # %
Tbl, trabecular bone length (ovariectomized ddY mice; [8]): 743.40 ± 187.00 um
Tbn, trabecular bone number (ovariectomized ddY mice; [8]): 21.80 ± 1.92 number/epiphyseal
Tbt, trabecular bone thickness (ovariectomized ddY mice; [8]): 68.00 ± 21.41 um
Cbt, cortical bone thickness (ovariectomized ddY mice; [4]): 136.80 ± 26.58 # um
Ocn, osteoclast cell number (ovariectomized ddY mice; [4]): 5.40 ± 1.52 # number
TBV, trabecular bone volume (ovariectomized ddY mice; [4]): 35.20 ± 4.90 # %
Tbl, trabecular bone length (ovariectomized ddY mice; [4]): 605.00 ± 160.44 ## um
Tbn, trabecular bone number (ovariectomized ddY mice; [4]): 11.80 ± 3.11 # number/epiphyseal
Tbt, trabecular bone thickness (ovariectomized ddY mice; [4]): 60.80 ± 13.20 # um
Cbt, cortical bone thickness (ovariectomized ddY mice; [9]): 170.40 ± 44.73 um
Ocn, osteoclast cell number (ovariectomized ddY mice; [9]): 3.60 ± 1.14 # number
TBV, trabecular bone volume (ovariectomized ddY mice; [9]): 38.42 ± 4.67 # %
Tbl, trabecular bone length (ovariectomized ddY mice; [9]): 679.20 ± 249.47 um
Tbn, trabecular bone number (ovariectomized ddY mice; [9]): 11.80 ± 3.96 # number/epiphyseal
Tbt, trabecular bone thickness (ovariectomized ddY mice; [9]): 112.60 ± 45.76 um
effect on decrease of Cbt induced by ovariectomy (summary in words) (ovariectomized ddY mice; [5]): significant effect to inhibit the decrease of Cbt induced by ovariectomy and the efficacy was higher than that of Fosamax
effect on decrease of TBV induced by ovariectomy (summary in words) (ovariectomized ddY mice; [5]): some significance effect to inhibit the decrease of TBV induced by ovariectomy but the efficacy was somewhat lower than that of Fosamax
effect on decrease of Tbl induced by ovariectomy (summary in words) (ovariectomized ddY mice; [5]): significant effect to inhibit the decrease of Tbl induced by ovariectomy and the efficacy was somewhat higher than that of Fosamax
effect on decrease of Tbn induced by ovariectomy (summary in words) (ovariectomized ddY mice; [5]): significance effect to inhibit the decrease of Tbn induced by ovariectomy and the efficacy was somewhat lower than that of Fosamax
effect on decrease of Tbt induced by ovariectomy (summary in words) (ovariectomized ddY mice; [5]): significance effect to inhibit the decrease of Tbt induced by ovariectomy and the efficacy was somewhat higher than that of Fosamax
effect on increase of Ocn induced by ovariectomy (summary in words) (ovariectomized ddY mice; [5]): significant effect to inhibit the increase of Ocn induced by ovariectomy and the efficacy was higher than that of Fosamax

CCCCC/C=C\C[C@@H](O)/C=C/C=C/C=C\[C@@H](O)CCCC(=O)O [LTB4, leukotriene-B4]
increase in the number of TRAP-positive osteoclasts compared to the control group (rabbit osteoclasts): 30˜40% and 40%
